Source: ChEMBL document CHEMBL3616429, “Chemical structure and biological activity of a quorum sensing pheromone from Bacillus subtilis subsp. natto” (2015)
Active and inactive are the calls of the source. The calls are words filed in the database; no cut-off is given here. *1 amine or outer side, *2 acyl side, *3 side chain or, on linkers, in order; H or OH if unused. Where a SMILES comes first, the peptide text is derived from it. [ ]: non-standard residue; d: D form. X1 = CC(C)=CCC/C(C)=C/CC/C(C)=C/C[C@]12C[C@@H](C(=O)[*:2])N([*:1])[C@@H]1Nc1ccccc12

Experiments:
Assay type in all cases: functional
Bacillus subtilis [1] = experiment: Induction of poly-gamma-glutamic acid production in Bacillus subtilis subsp. natto at 1000 nM incubated for 72 hrs at 37 degC by ultra-filtration method
Bacillus subtilis [2] = experiment: Induction of poly-gamma-glutamic acid production in Bacillus subtilis subsp. natto at >1 nM incubated for 72 hrs at 37 degC by ultra-filtration method
Bacillus subtilis [3] = experiment: Induction of poly-gamma-glutamic acid production in Bacillus subtilis subsp. natto at 10 nM incubated for 72 hrs at 37 degC by ultra-filtration method
Bacillus subtilis [4] = experiment: Induction of poly-gamma-glutamic acid production in Bacillus subtilis subsp. natto at 100 nM incubated for 72 hrs at 37 degC by ultra-filtration method

## H-KWPPIE-OH
Bacillus subtilis [1]
  Activity: inactive

## CC[C@H](C)[C@H](NC(=O)[C@@H]1CCCN1C(=O)[C@@H]1CCCN1C(=O)[C@@H]1C[C@]2(C/C=C(\C)CC/C=C(\C)CCC=C(C)C)c3ccccc3N[C@H]2N1C(=O)[C@@H](N)CCCCN)C(=O)N[C@@H](CCC(=O)O)C(=O)O (H-K[X1]PPIE-OH)
Bacillus subtilis [2]
  Activity: Active
Bacillus subtilis [3]
  Activity: Active
Bacillus subtilis [4]
  fold change (FC): 2
